Results published in patent US9315475B2 (MERCK SHARP & DOHME CORP., priority 2011, dated 2016).

target: T1, wildtype HIV-1 protease (Human immunodeficiency virus type 1 group M subtype B, UniProt P04585); assay: Assay for inhibition of microbial expressed HIV protease (Pepcleav); assay type: biochemical; conditions: wild type HIV-1 protease expressed in E. coli, peptide substrate, pH 5.5; mean of at least two independent experiments; read-out: Pepcleav
T1 construct: the wildtype HIV-1 protease (which was expressed in Escherichia coli); made in house; host or cells: Escherichia coli
How it was run: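 Cleavage of 400 μM peptide substrate Val-Ser-Gln-Asn-(βnaphthyl)Ala-Pro-Ile-Val by 20 pM wild-type enzyme (E. coli-expressed) ran 1 h at 30 °C after 30 min inhibitor preincubation, pH 5.5 acetate buffer. Inhibition derived from product peak area by C18 LC with multiple-reaction-monitoring MS after formic acid quench.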

Row | SMILES | IC50
1 | N[C@H](C(=O)Nc1cccc(F)c1CC[C@@H]1CN[C@H](COC(=O)NCC(F)(F)F)CO1)[C@H](c1ccc(F)cc1)c1ccc(OC(F)(F)F)cc1 [Example 231, (βS)-β-(4-fluorophenyl)-N-(3-fluoro-2-{2-[(2R,5S)-5-({[(2,2,2-trifluoroethyl)carbamoyl]oxy}methyl)morpholin-2-yl]ethyl}phenyl)-O-(trifluoromethyl)-L-tyrosinamide] | 0.15 µM
2 | CS(=O)(=O)CC[C@@H]1CO[C@H](COc2c(F)cccc2NC(=O)[C@@H](N)C(c2ccccc2)c2ccccc2)CN1 [Example 232, N-[3-fluoro-2-({(2S,5R)-5-[2-(methylsulfonyl)ethyl]morpholin-2-yl}methoxy)phenyl]-β-phenyl-L-phenylalaninamide] | 0.15 µM
3 | N[C@H](C(=O)Nc1cncc(F)c1CC[C@@H]1CN[C@H](COC(=O)NCCN2CCCC2)CO1)C(c1ccc(F)cc1)c1ccc(F)cc1 [Example 233, 4-fluoro-β-(4-fluorophenyl)-N-(5-fluoro-4-{2-[(2R,5S)-5-({[(2-pyrrolidin-1-ylethyl)carbamoyl]oxy}methyl)morpholin-2-yl]ethyl}pyridin-3-yl)-L-phenylalaninamide] | 0.11 µM
4 | N[C@H](C(=O)Nc1cccc(C(F)(F)F)c1CC[C@@H]1CN[C@H](COC(=O)NCC(F)(F)F)CO1)C(c1ccccc1)c1ccccc1 [Example 234, β-phenyl-N-[2-{2-[(2R,5S)-5-({[(2,2,2-trifluoroethyl)carbamoyl]oxy}methyl)morpholin-2-yl]ethyl}-3-(trifluoromethyl)phenyl]-L-phenylalaninamide] | 0.11 µM
5 | COC(=O)N[C@H](C(=O)Nc1cccc(F)c1CC[C@@H]1CN[C@H](COC(=O)NCC(F)(F)F)CO1)[C@H](c1ccc(F)cc1)c1cccc(OC)c1 [Example 306, (βR)-4-fluoro-N-(3-fluoro-2-{2-[(2R, 5S)-5-({[(2,2,2-trifluoroethyl)carbamoyl]oxy}methyl)morpholin-2-yl]ethyl}phenyl)-Nα-(methoxy-carbonyl)-β-(3-methoxyphenyl)-L-phenylalaninamide] | 0.17 µM

test system: HIV-1 (H9IIIB strain); assay: Antiviral acute infection assay in cell culture (Spread); assay type: cell-based; conditions: Human immunodeficiency virus 1, T-lymphoid, HIV-1 H9IIIB infection of MT-4 human T-lymphoid cells in 10% FBS; mean of at least two independent experiments
Excerpt: Antiviral Assays in Cell Culture (“Spread”)
Acute Infection Assay (“Spread”) data were generated using HIV-1 (H9IIIB strain) infection of MT-4 human T-lymphoid cells in 10% FBS, and according to the methods disclosed by J. P. Vacca et al, “L-735,524: An orally bioavailable human immunodeficiency virus type 1 protease inhibitor,” Proc. Natl. Acad. Sci. USA, Vol. 91, pp. 4096-4100 (April 1994).

Row | SMILES | EC50
6 | N[C@H](C(=O)Nc1cncc(F)c1CC[C@@H]1CN[C@H](COC(=O)NCC(F)(F)F)CO1)[C@@H](c1ccc(Cl)cc1)c1cccc(OC(F)(F)F)c1 [Example 98, (βS)-β-(4-Chlorophenyl)-N-(5-fluoro-4-{2-[(2R,5S)-5-({[(2,2,2-trifluoroethyl)carbamoyl]oxy}methyl)morpholin-2-yl]ethyl}pyridin-3-yl)-3-(trifluoromethoxy)-L-phenylalaninamide] | 0.028 µM
7 | COC(=O)N[C@H](C(=O)Nc1cccc(F)c1CC[C@@H]1CN[C@H](COC(=O)NCC(F)(F)F)CO1)[C@H](c1ccccc1)c1ccc(OC)c(Cl)c1 [Example 109, (βR)-3-Chloro-N-(3-fluoro-2-{2-[(2R,5S)-5-({[(2,2,2-trifluoroethyl)carbamoyl]oxy}methyl)morpholin-2-yl]ethyl}phenyl)-Nα-(methoxycarbonyl)-O-methyl-β-phenyl-L-tyrosinamide] | 0.34 µM
8 | COC(=O)N[C@H](C(=O)Nc1cccc(F)c1CC[C@@H]1CN[C@H](COC(=O)NCC(F)(F)F)CO1)[C@@H](c1ccc(Cl)cc1)c1ccc2c(c1)OCO2 [Example 110, (βS)-β-1,3-Benzodioxol-5-yl-4-chloro-N-(3-fluoro-2-{2-[(2R,5S)-5-({[(2,2,2-trifluoroethyl)carbamoyl]oxy}methyl)morpholin-2-yl]ethyl}phenyl)-Nα-(methoxycarbonyl)-L-phenylalaninamide] | 0.0069 µM
9 | COC(=O)N[C@H](C(=O)Nc1cccc(F)c1CC[C@@H]1CN[C@H](COC(=O)NCC(F)(F)F)CO1)[C@@H](c1ccc(F)cc1)c1ccccc1OC(F)(F)F [Example 111, (βS)-4-Fluoro-N-(3-fluoro-2-{2-[(2R,5S)-5-({[(2,2,2-trifluoroethyl)carbamoyl]oxy}methyl)morpholin-2-yl]ethyl}phenyl)-Nα-(methoxycarbonyl)-β-[2-(trifluoromethoxy)phenyl]-L-phenylalaninamide] | 0.025 µM
10 | O=C(C[C@@H](c1ccc(Cl)cc1)c1ccc2c(c1)CCO2)Nc1cncc(F)c1CC[C@@H]1CN[C@H](COC(=O)NCC(F)(F)F)CO1 [Example 114, {(3S,6R)-6-[2-(3-{[(3S)-3-(4-Chlorophenyl)-3-(2,3-dihydro-1-benzofuran-5-yl)propanoyl]amino}-5-fluoropyridin-4-yl)ethyl]morpholin-3-yl}methyl (2,2,2-trifluoroethyl)carbamate] | 0.014 µM

Other lines, results leading:

Row | EC50 | SMILES
11 | 0.087 µM | O=C(CC(c1ccc(F)cc1)c1ccc(F)cc1)Nc1cncc(F)c1CC[C@@H]1CN[C@H](CNC(=O)OCC(F)(F)F)CO1 [Example 85, 2,2,2-trifluoroethyl ({(3R,6R)-6-[2-(3-{[3,3-bis(4-fluoro-phenyl)propanoyl]amino}-5-fluoropyridin-4-yl)ethyl]morpholin-3-yl}methyl)carbamate]
12 | 2.2 µM | O=C(CC(c1ccc(F)cc1)c1ccc(F)cc1)Nc1cccc(F)c1CC[C@@H]1CN[C@H](CNC(=O)OCC(F)(F)F)CO1 [Example 87, 2,2,2-trifluoroethyl ({(3R,6R)-6-[2-(2-{[3,3-bis(4-fluoro-phenyl)propanoyl]amino}-6-fluorophenyl)ethyl]morpholin-3-yl}methyl) carbamate]
13 | 0.45 µM | N[C@H](C(=O)Nc1cccc(F)c1CC[C@@H]1CN[C@H](CNC(=O)OCC(F)(F)F)CO1)C(c1ccc(F)cc1)c1ccc(F)cc1 [Example 88, 4-fluoro-β-(4-fluorophenyl)-N-(3-fluoro-2-{2-[(2R,5R)-5-({[(2,2,2-trifluoro-ethoxy)carbonyl]amino}methyl)morpholin-2-yl]ethyl}phenyl)-L-phenylalaninamide]
14 | 0.039 µM | N[C@H](C(=O)Nc1cccc(F)c1CC[C@@H]1CN[C@H](COC(=O)NCC(F)(F)F)CO1)[C@H](c1ccc(Cl)cc1)c1ccc2c(c1)OCO2 [Example 100, {(3S,6R)-6-[2-(2-{[(3R)-3-(1,3-Benzodioxol-5-yl)-3-(4-chlorophenyl)-L-alanyl]amino}-6-fluorophenyl)ethyl]morpholin-3-yl}methyl (2,2,2-trifluoroethyl)carbamate]
15 | 0.037 µM | N#Cc1ccc([C@H](c2ccc(F)c(F)c2)[C@H](N)C(=O)Nc2cccc(F)c2CC[C@@H]2CN[C@H](COC(=O)NCC(F)(F)F)CO2)cc1 [Example 102, (βR)-β-(4-Cyanophenyl)-3,4-difluoro-N-(3-fluoro-2-{2-[(2R,5S)-5-({[(2,2,2-trifluoroethyl)carbamoyl]oxy}methyl)morpholin-2-yl]ethyl}phenyl)-L-phenylalaninamide]
16 | 0.026 µM | COC(=O)N[C@H](C(=O)Nc1cncc(F)c1CC[C@@H]1CN[C@H](COC(=O)NCC(F)(F)F)CO1)[C@@H](c1ccc(Cl)cc1)c1ccc2c(c1)OCO2 [Example 104, (βS)-β-1,3-Benzodioxol-5-yl-4-chloro-N-(5-fluoro-4-{2-[(2R,5S)-5-({[(2,2,2-trifluoroethyl)carbamoyl]oxy}methyl)morpholin-2-yl]ethyl}pyridin-3-yl)-Nα-(methoxycarbonyl)-L-phenylalaninamide]
17 | 0.0065 µM | COC(=O)N[C@H](C(=O)Nc1cncc(F)c1CC[C@@H]1CN[C@H](COC(=O)NCC(F)(F)F)CO1)[C@@H](c1ccc(Cl)cc1)c1cccc(OC(F)(F)F)c1 [Example 106, (βS)-β-(4-Chlorophenyl)-N-(5-fluoro-4-{2-[(2R,5S)-5-({[(2,2,2-trifluoroethyl)carbamoyl]oxy}methyl)morpholin-2-yl]ethyl}pyridin-3-yl)-Nα-(methoxycarbonyl)-3-(trifluoromethoxy)-L-phenylalaninamide]
18 | 0.86 µM | COC(=O)N[C@H](C(=O)Nc1cccc(F)c1CC[C@@H]1CN[C@H](COC(=O)NCC(F)(F)F)CO1)C(c1ccc(Cl)cc1)c1ccc(Cl)cc1 [Example 108, 4-Chloro-β-(4-chlorophenyl)-N-(3-fluoro-2-{2-[(2R,5S)-5-({[(2,2,2-trifluoroethyl)carbamoyl]oxy}methyl)morpholin-2-yl]ethyl}phenyl)-Nα-(methoxycarbonyl)-L-phenylalaninamide]
19 | 0.2 µM | COC(=O)N[C@H](C(=O)Nc1cccc(F)c1CC[C@@H]1CN[C@H](COC(=O)NCC(F)(F)F)CO1)[C@@H](c1ccncc1)c1ccc(F)cc1 [Example 112, (βR)-4-Fluoro-N-(3-fluoro-2-{2-[(2R,5S)-5-({[(2,2,2-trifluoroethyl)carbamoyl]oxy}methyl)morpholin-2-yl]ethyl}phenyl)-Nα-(methoxycarbonyl)-β-pyridin-4-yl-L-phenylalaninamide]
20 | 0.32 µM | CS(=O)(=O)c1ccc([C@@H](CC(=O)Nc2cccc(F)c2CC[C@@H]2CN[C@H](COC(=O)NCC(F)(F)F)CO2)c2cccc(F)c2)cc1 [Example 113, [(3S,6R)-6-{2-[2-Fluoro-6-({(3R)-3-(3-fluorophenyl)-3-[4-(methylsulfonyl)phenyl]propanoyl}amino)phenyl]ethyl}morpholin-3-yl]methyl (2,2,2-trifluoroethyl)carbamate]
21 | 0.03 µM | N#Cc1ccc([C@@H](CC(=O)Nc2cncc(F)c2CC[C@@H]2CN[C@H](COC(=O)NCC(F)(F)F)CO2)c2ccc(F)c(F)c2)cc1 [Example 115, {(3S,6R)-6-[2-(3-{[(3R)-3-(4-Cyanophenyl)-3-(3,4-difluorophenyl)propanoyl]amino}-5-fluoropyridin-4-yl)ethyl]morpholin-3-yl}methyl (2,2,2-trifluoroethyl)carbamate]
